# According to ChEMBL document CHEMBL5724914, “Linking interpersonal differences in gut microbiota composition and drug biotransformation activity” (2024):
# How the values were obtained:
# [1] = human gut metagenome, 24 h, 2 µM
# [2] = The drug is tested on Z-011 corresponding to mouse gut metagenome with ENA study accession number: PRJEB37062 and ENA sample accession number: ERS12561811 for biotransformation under anaerobic condition. The drug concentrations were measured over 9 timepoints collected between 0 and 24 hours of incubation by liquid-chromatography-coupled mass spectrometry (LC–MS); details: 2 µM
# [3] = The drug is tested on Z-029 corresponding to rat gut metagenome with ENA study accession number: PRJEB37062 and ENA sample accession number: ERS12561828 for biotransformation under anaerobic condition. The drug concentrations were measured over 9 timepoints collected between 0 and 24 hours of incubation by liquid-chromatography-coupled mass spectrometry (LC–MS); details: 2 µM
# [4] = The drug is tested on Z-025 corresponding to rabbit gut metagenome with ENA study accession number: PRJEB37062 and ENA sample accession number: ERS12561824 for biotransformation under anaerobic condition. The drug concentrations were measured over 9 timepoints collected between 0 and 24 hours of incubation by liquid-chromatography-coupled mass spectrometry (LC–MS); details: 2 µM
# [5] = human gut metagenome, 24 h, 2 µM; remark: listed apart in the source
# [6] = The drug is tested on WLS-310 corresponding to human gut metagenome with ENA study accession number: PRJEB37062 and ENA sample accession number: ERS12561785 for biotransformation under anaerobic condition. The drug concentrations were measured over 9 timepoints collected between 0 and 24 hours of incubation by liquid-chromatography-coupled mass spectrometry (LC–MS); details: 2 µM
# [7] = human gut metagenome, 24 h, 2 µM; remark: listed apart in the source
# [8] = human gut metagenome, 24 h, 2 µM; remark: listed apart in the source
# [9] = The drug is tested on Z-013 corresponding to rabbit gut metagenome with ENA study accession number: PRJEB37062 and ENA sample accession number: ERS12561813 for biotransformation under anaerobic condition. The drug concentrations were measured over 9 timepoints collected between 0 and 24 hours of incubation by liquid-chromatography-coupled mass spectrometry (LC–MS); details: 2 µM
# [10] = human gut metagenome, 24 h, 2 µM; remark: listed apart in the source
# [11] = human gut metagenome, 24 h, 2 µM; remark: listed apart in the source
# [12] = The drug is tested on Z-012 corresponding to metagenome with ENA study accession number: PRJEB37062 and ENA sample accession number: ERS12561812 for biotransformation under anaerobic condition. The drug concentrations were measured over 9 timepoints collected between 0 and 24 hours of incubation by liquid-chromatography-coupled mass spectrometry (LC–MS); details: 2 µM
# [13] = The drug is tested on Z-001 corresponding to mouse gut metagenome with ENA study accession number: PRJEB37062 and ENA sample accession number: ERS12561801 for biotransformation under anaerobic condition. The drug concentrations were measured over 9 timepoints collected between 0 and 24 hours of incubation by liquid-chromatography-coupled mass spectrometry (LC–MS); details: 2 µM
# [14] = human gut metagenome, 24 h, 2 µM; remark: listed apart in the source
# [15] = The drug is tested on WLS-077 corresponding to human gut metagenome with ENA study accession number: PRJEB37062 and ENA sample accession number: ERS12561750 for biotransformation under anaerobic condition. The drug concentrations were measured over 9 timepoints collected between 0 and 24 hours of incubation by liquid-chromatography-coupled mass spectrometry (LC–MS); details: 2 µM
# [16] = The drug is tested on Z-018 corresponding to pig gut metagenome with ENA study accession number: PRJEB37062 and ENA sample accession number: ERS12561817 for biotransformation under anaerobic condition. The drug concentrations were measured over 9 timepoints collected between 0 and 24 hours of incubation by liquid-chromatography-coupled mass spectrometry (LC–MS); details: 2 µM
# [17] = human gut metagenome, 24 h, 2 µM; remark: listed apart in the source
# [18] = human gut metagenome, 24 h, 2 µM; remark: listed apart in the source
# [19] = human gut metagenome, 24 h, 2 µM; remark: listed apart in the source
# [20] = The drug is tested on Z-022 corresponding to mouse gut metagenome with ENA study accession number: PRJEB37062 and ENA sample accession number: ERS12561821 for biotransformation under anaerobic condition. The drug concentrations were measured over 9 timepoints collected between 0 and 24 hours of incubation by liquid-chromatography-coupled mass spectrometry (LC–MS); details: 2 µM
# Also: call rule not given here.
SMILES,Bacterial Biotransformation [1],Bacterial Biotransformation [2],Bacterial Biotransformation [3],Bacterial Biotransformation [4],Bacterial Biotransformation [5],Bacterial Biotransformation [6],Bacterial Biotransformation [7],Bacterial Biotransformation [8],Bacterial Biotransformation [9],Bacterial Biotransformation [10],Bacterial Biotransformation [11],Bacterial Biotransformation [12],Bacterial Biotransformation [13],Bacterial Biotransformation [14],Bacterial Biotransformation [15],Bacterial Biotransformation [16],Bacterial Biotransformation [17],Bacterial Biotransformation [18],Bacterial Biotransformation [19],Bacterial Biotransformation [20]
CC(NC(C)(C)C)C(=O)c1cccc(Cl)c1 (stereo not given) [BUPROPION],Compound NOT metabolized,Compound NOT metabolized,Compound NOT metabolized,Compound NOT metabolized,Compound NOT metabolized,Compound NOT metabolized,Compound NOT metabolized,Compound NOT metabolized,Compound metabolized,Compound NOT metabolized,Compound NOT metabolized,Compound NOT metabolized,Compound NOT metabolized,Compound NOT metabolized,Compound NOT metabolized,Compound metabolized,Compound NOT metabolized,Compound NOT metabolized,Compound NOT metabolized,Compound NOT metabolized
CC(C)(C)NC[C@H](O)COc1nsnc1N1CCOCC1.O=C(O)/C=C\C(=O)O [TIMOLOL MALEATE],Compound NOT metabolized,Compound NOT metabolized,Compound NOT metabolized,Compound NOT metabolized,Compound NOT metabolized,Compound NOT metabolized,Compound NOT metabolized,Compound NOT metabolized,Compound NOT metabolized,Compound NOT metabolized,Compound NOT metabolized,Compound NOT metabolized,Compound NOT metabolized,Compound NOT metabolized,Compound NOT metabolized,Compound NOT metabolized,Compound NOT metabolized,Compound NOT metabolized,Compound NOT metabolized,Compound NOT metabolized
CCOc1ccc2nc(S(N)(=O)=O)sc2c1 [ETHOXZOLAMIDE],Compound NOT metabolized,Compound NOT metabolized,Compound NOT metabolized,Compound NOT metabolized,Compound metabolized,Compound NOT metabolized,Compound NOT metabolized,Compound NOT metabolized,Compound NOT metabolized,Compound NOT metabolized,Compound NOT metabolized,Compound NOT metabolized,Compound NOT metabolized,Compound NOT metabolized,Compound NOT metabolized,Compound NOT metabolized,Compound NOT metabolized,Compound NOT metabolized,Compound NOT metabolized,Compound NOT metabolized
CCOc1ccccc1OCCN[C@H](C)Cc1ccc(OC)c(S(N)(=O)=O)c1.Cl [TAMSULOSIN HYDROCHLORIDE],Compound NOT metabolized,Compound NOT metabolized,Compound NOT metabolized,Compound NOT metabolized,Compound NOT metabolized,Compound NOT metabolized,Compound NOT metabolized,Compound NOT metabolized,Compound NOT metabolized,Compound NOT metabolized,Compound NOT metabolized,Compound NOT metabolized,Compound NOT metabolized,Compound NOT metabolized,Compound NOT metabolized,Compound NOT metabolized,Compound NOT metabolized,Compound NOT metabolized,Compound NOT metabolized,Compound NOT metabolized
CCOC(=O)C1=C[C@]2(CC)CCCN3CCc4c(n1c1ccccc41)[C@@H]32 [VINPOCETINE],Compound NOT metabolized,Compound NOT metabolized,Compound NOT metabolized,Compound NOT metabolized,Compound metabolized,Compound metabolized,Compound metabolized,Compound NOT metabolized,Compound NOT metabolized,Compound metabolized,Compound metabolized,Compound NOT metabolized,Compound NOT metabolized,Compound NOT metabolized,Compound metabolized,Compound metabolized,Compound metabolized,Compound NOT metabolized,Compound metabolized,Compound metabolized
O=P1(N(CCCl)CCCl)NCCCO1 (stereo not given) [CYCLOPHOSPHAMIDE ANHYDROUS],Compound NOT metabolized,Compound NOT metabolized,Compound NOT metabolized,Compound NOT metabolized,Compound metabolized,Compound metabolized,Compound NOT metabolized,Compound NOT metabolized,Compound NOT metabolized,Compound NOT metabolized,Compound NOT metabolized,Compound NOT metabolized,Compound NOT metabolized,Compound NOT metabolized,Compound NOT metabolized,Compound NOT metabolized,Compound metabolized,Compound NOT metabolized,Compound NOT metabolized,Compound NOT metabolized
